Assay results as given in patent US12090204B2, “Photodynamic therapy compositions and methods of use thereof” (Pinnacle Biologics, Inc., priority 2020, dated 2024).
“And” between values parts separate entries of the source, which are not always exact repeats. Equal values may be shown once.

Experiments:
[1] = tested on: methicillin-resistant Staphylococcus aureus (MRSA), Staphylococcus aureus ATCC BAA 1768; test: partial thickness wound model, microbial load in wound swabs (Example 4); assay type: in vivo, Yorkshire pig; settings: for overall decrease of mean microbial load in wound swabs over the course of treatment (SD1 to SD3): untreated Group 2: 20-fold; for WOUND SWABS (CFU/mL) 24 hr. Post-Treat 2 / WOUND SWABS (CFU/mL) Immediately Post-Treat 2 / WOUND SWABS (CFU/mL) Pre-treat 2 / WOUND SWABS (CFU/mL) Pre-Treat 1: individual wounds; for WOUND SWABS (CFU/mL) Pre-Treat 1: 1.0 mg/mL
Procedure: Bacteria strains were obtained from ATCC (Manassas, VA). Bacteria were propagated from glycerol stock store at −80° C. A stab of the glycerol stock was used to inoculate 5 mL of trypticase soy broth. The cultures were incubated overnight at 37° C. with shaking at 250 rpm. The following day, a portion of overnight culture was used to prepare a streak plate onto an Oxacillin screen plate which was incubated overnight at 37° C. and single colony isolates of freshly plated bacteria were used to prepare bacterial inoculum. The morning of wounding an infection, a portion of overnight culture was used to inoculate 50 mL of trypticase soy broth and the newly inoculated media was incubated at 37° C. with shaking at 250 rpm until log phase growth was reached. The bacteria were pelleted by centrifugation at 4,000 rpm at 4° C. for 10 minutes in a Sorval tabletop centrifuge. The culture supernatant was discarded, and the bacterial pellets were suspended in a volume of sterile PBS to yield a concentration of 2×10^7 CFU/mL.
Wounds were swabbed with a sterile cotton tipped applicator in a serpentine motion starting at the upper left-hand margin of the wound and ending at the bottom right wound margin. A dry sterile cotton tipped applicator was used for all wounds. The swabs were placed into 14 mL falcon tubes containing 1 mL of sterile PBS. The tubes were vigorously vortexed and serial 10-fold dilutions of the PBS in the tubes containing the swabs were prepared. One hundred microliters of select dilutions for wound groups were plated onto agar plates. The plates were incubated at 35-37° C. and colonies enumerated manually. The data are reported as CFU/swab normalized to the volume of PBS in which the swabs were placed.
This study evaluated the ability of porfimer sodium to reduce/eliminate microbial colonization and biofilm from surgical sites in a partial thickness would healing model. The study was conducted in a single female Yorkshire pig over the course of five days. A dermatome was used to create 20 partial thickness wounds. Sixteen of the wounds were infected with methicillin-resistant Staphylococcus aureus (MRSA), and four were designated as uninfected controls. The wounds were bandaged and the bacterial biofilm allowed to develop for 48 hours.
Designated infected wounds were subjected to two courses of treatment with the test article at a periodicity of 24 hours. Article dose concentration of 1.0 mg/mL of porfimer sodium was prepared as described in Example 3, and used immediately, with the exception of two wounds (L6 and L7) where the test article (reconstituted porfimer sodium) was mixed 1:1 with NeilMed NasalGel.
Treatments consisted of application of the test article followed by photoactivation with one or two intensities of light, 150 J/cm^2 or 200 J/cm^2 (Table 3). Wounds were evaluated for microbial load prior to each course of treatment, immediately following the final treatment and 24 hours following the final treatment. Tissue specimens from infected and non-infected wounds were harvested for histology of biofilm formation at each treatment time point. Tissue specimens from treated wounds were harvested 24 hours following the final treatments for histology.

[2] = tested on: S. pneumo (+); test: porfimer sodium aPDT, planktonic culture; assay type: cell-based, Streptococcus pneumoniae; settings: 630 nm, 100 J/cm2, porfimer sodium 125 μg/mL
Procedure: (§1) Bacteria were routinely cultured using tryptic soy broth or agar at 37° C. in a 5% CO2 incubator. Bacteria were isolated and suspended with 0.9% NaCl to an Optical Density (OD) of 0.1 taken at 630 nm, to generate the inoculum used for either planktonic or biofilm assays.
(§2) Experiments using planktonic cultures were carried out using M. catarrhalis, as a standard for further comparisons and to determine the effective drug concentration, porfimer sodium incubation time and light dose parameters which would provide an effective cell kill at the level of 5-7 logs. Once determined the experiments were repeated for all other bacterial strains examined.
(§3) The colony forming units (CFU) per mL of the starting inoculum for every experiment was determined by dilution plating. […]
(§4) Bacteria were exposed to 630 nm laser light via a fiber optic with a lens affixed to the distal end to provide a uniform diverging light field. […] Power output of the laser was measured using a UDT/Gamma Scientific 371 optical power meter and an integrating sphere. […]
(§5) Biofilms were formed on glass coupons in culture dishes containing a bacterial inoculum for 48 hours under conditions specific to the strain. […] Power output of the laser was measured using a UDT/Gamma Scientific 371 optical power meter and an integrating sphere. […]

[3] = tested on: A. baumannii (−); test: porfimer sodium aPDT, planktonic culture; assay type: cell-based, Acinetobacter baumannii; settings: 630 nm, 200 J/cm2, porfimer sodium 125 μg/mL
Procedure: as §1, §2, §3, §4, §5

[4] = Group 4 (200 J/cm^2), N 3, without wounds L6, R5, R9

porfimer sodium
Mean microbial load, Posttreat 2 (swab) ([1]; Group 3 (150 J/cm^2), N 6): 5.33E+03 CFU/swab
Mean microbial load, Pretreat 1 (swab) ([1]; Group 3 (150 J/cm^2), N 6): 9.91E+05 CFU/swab
Mean microbial load, Pretreat 2 (swab) ([1]; Group 3 (150 J/cm^2), N 6): 1.90E+05 CFU/swab
additional decrease of mean microbial load in wound swabs following Treatment 2 ([1]; Group 3, 150 J/cm^2): 36 fold
decrease of mean microbial load in wound swabs following treatment 1 (SD1 to SD2) ([1]; Group 3, 150 J/cm^2): 5.2 fold
overall decrease of mean microbial load in wound swabs over the course of treatment (SD1 to SD3) ([1]; Group 3, 150 J/cm^2): 186 fold
WOUND SWABS (CFU/mL) 24 hr. Post-Treat 2 ([1]; Group 3 = 150 J/cm2 treatment): 1.14E+04 CFU/mL and 1.17E+04 CFU/mL and 3.50E+02 CFU/mL and 2.65E+03 CFU/mL and 4.30E+03 CFU/mL
WOUND SWABS (CFU/mL) Immediately Post-Treat 2 ([1]; Group 3 = 150 J/cm2 treatment): 1.92E+05 CFU/mL and 6.16E+03 CFU/mL
WOUND SWABS (CFU/mL) Pre-treat 2 ([1]; Group 3 = 150 J/cm2 treatment): 8.80E+04 CFU/mL and 6.60E+05 CFU/mL and 2.74E+03 CFU/mL and 4.20E+04 CFU/mL and 3.45E+05 CFU/mL
WOUND SWABS (CFU/mL) Pre-Treat 1 ([1]; Group 3 = 150 J/cm2 treatment): 6.30E+05 CFU/mL and 3.03E+06 CFU/mL and 2.88E+05 CFU/mL and 4.00E+03 CFU/mL and 5.40E+04 CFU/mL
Mean microbial load, Posttreat 2 (swab) [1, 4]: 1.16E+03 CFU/swab
Mean microbial load, Pretreat 1 (swab) [1, 4]: 8.53E+05 CFU/swab
Mean microbial load, Pretreat 2 (swab) [1, 4]: 5.11E+05 CFU/swab
additional decrease of mean microbial load in wound swabs following Treatment 2 ([1]; Group 4, 200 J/cm^2): 250 fold
decrease of mean microbial load in wound swabs following treatment 1 (SD1 to SD2) ([1]; Group 4, 200 J/cm^2): 1.7 fold
overall decrease of mean microbial load in wound swabs over the course of treatment (SD1 to SD3) ([1]; Group 4, 200 J/cm^2): 735 fold
WOUND SWABS (CFU/mL) 24 hr. Post-Treat 2 ([1]; Group 4 = 200 J/cm2 treatment): 1.55E+03 CFU/mL and 1.79E+02 CFU/mL and 1.75E+03 CFU/mL and 3.15E+03 CFU/mL and 2.31E+02 CFU/mL
WOUND SWABS (CFU/mL) Immediately Post-Treat 2 ([1]; Group 4 = 200 J/cm2 treatment): 4.20E+04 CFU/mL and 2.80E+04 CFU/mL
WOUND SWABS (CFU/mL) Pre-treat 2 ([1]; Group 4 = 200 J/cm2 treatment): 1.40E+04 CFU/mL and 2.00E+04 CFU/mL and 1.50E+06 CFU/mL and 1.44E+06 CFU/mL and 7.60E+00 CFU/mL
WOUND SWABS (CFU/mL) Pre-Treat 1 ([1]; Group 4 = 200 J/cm2 treatment): 2.42E+05 CFU/mL and 2.60E+04 CFU/mL and 2.29E+06 CFU/mL and 0.00E+00 CFU/mL (2×)
consistency of results when applied directly to infected wounds ([1]; porfimer sodium mixed in saline): inconsistency in the results
Rate of kill [2]: >4Log
Rate of kill [3]: 1Log
